In brackets after ≈: the same amount, converted by molar mass. Like-named read-outs stand apart in the source and are kept apart here.
Experiments:
[1] = C60 molecules diffuse out of the body; cited from earlier work
[2] = per single C60 molecule; cited from earlier work
[3] = cited from earlier work
[4] = Solubility of C60 in limonene composition / d-limonene by heating method 200; type: physicochemical
Excerpt: As shown in the flowchart of FIG. 2 and with additional reference to FIG. 3, a method 200 for dissolving C60 304 in a liquid medium that is non-toxic and safe for human consumption includes combining C60 304 with a limonene composition 308 to form a C60 mixture 312. (Block 204). The limonene composition 308 is discussed in connection with the method 200, but the limonene composition 308 may be substituted with orange terpenes or other edible and non-toxic terpenes (or terpene containing liquids). The limonene composition 308 is used over orange terpenes, because the limonene composition 308 has a more pleasant and less bitter taste. In one embodiment, the limonene composition 308 is at least 95% d-limonene by volume, with the remaining 5% including any other liquid, such as limonene, flavoring, fragrances, and the like. In another embodiment, the limonene composition 308 is at least 75% d-limonene with the remaining 25% including any other liquid, such as limonene, flavoring, fragrances, and the like.
At block 204 of the method 200, the C60 304 is pulverized into a powdered form and combined with the liquid limonene composition 308 in a glass vessel (not shown) or any other heat-safe and non-reactive container. Additionally or alternatively, the C60 304 is not pulverized and is added to the limonene composition 308 in granular, chunky, or crystalline state. […]

IgE = details: animal models, applied topically; cited from earlier work

**Q.** Which results are given for `c12c3c4c5c1c1c6c7c2c2c8c3c3c9c4c4c%10c5c5c1c1c6c6c%11c7c2c2c7c8c3c3c8c9c4c4c9c%10c5c5c1c1c6c6c%11c2c2c7c3c3c8c4c4c9c5c1c1c6c2c3c41` [C60, Buckminsterfullerene]?
**A.** residence time in the body [1]: about five; free electrons / methyl radicals absorbed per C60 molecule [2]: up to thirty-four; Solubility Limit ([3]; solvent 1,2-dichlorobenzene): 27000 µg/mL (≈ 37500 µM); Solubility Limit ([3]; solvent 1-chloronaphthalene): 41000 µg/mL (≈ 56900 µM); Solubility Limit ([3]; solvent 1-methylnaphthalene): 33000 µg/mL (≈ 45800 µM); Solubility Limit ([3]; solvent acetone): 1 µg/mL (≈ 1.39 µM); Solubility Limit ([3]; solvent anisole): 5600 µg/mL (≈ 7770 µM); Solubility Limit ([3]; solvent benzene): 1700 µg/mL (≈ 2360 µM); Solubility Limit ([3]; solvent benzonitrile): 410 µg/mL (≈ 569 µM); Solubility Limit ([3]; solvent carbon disulfide): 7900 µg/mL (≈ 11000 µM); Solubility Limit ([3]; solvent carbon tetrachloride): 447 µg/mL (≈ 620 µM); Solubility Limit ([3]; solvent chloroform): 160 µg/mL (≈ 222 µM); Solubility Limit ([3]; solvent cyclohexane): 36 µg/mL (≈ 50 µM); Solubility Limit ([3]; solvent decalins): 4600 µg/mL (≈ 6380 µM); Solubility Limit ([3]; solvent dichloromethane): 260 µg/mL (≈ 361 µM); Solubility Limit ([3]; solvent ethanol): 1.4 µg/mL (≈ 1.94 µM); Solubility Limit in mg/ml ([3]; solvent isopropanol): ND (“ND” indicates that C60 in insoluble in the identified solvent); Solubility Limit in mg/ml ([3]; solvent methanol): ND (“ND” indicates that C60 in insoluble in the identified solvent); Solubility Limit ([3]; solvent n-decane): 71 µg/mL (≈ 98.5 µM); Solubility Limit ([3]; solvent n-hexane): 43 µg/mL (≈ 59.7 µM); Solubility Limit ([3]; solvent n-pentane): 5 µg/mL (≈ 6.94 µM); Solubility Limit ([3]; solvent octanol): 42.9 µg/mL (≈ 59.5 µM); Solubility Limit ([3]; solvent tetrachloromethane): 320 µg/mL (≈ 444 µM); Solubility Limit in mg/ml ([3]; solvent tetrahydrofuran): ND (“ND” indicates that C60 in insoluble in the identified solvent); Solubility Limit ([3]; solvent tetralin): 16000 µg/mL (≈ 22200 µM); Solubility Limit ([3]; solvent toluene): 2800 µg/mL (≈ 3890 µM); Solubility Limit ([3]; solvent water): 1.3e-08 µg/mL (≈ 1.8e-08 µM); Solubility Limit ([3]; solvent xylene): 5200 µg/mL (≈ 7220 µM); dissolution of C60 into the limonene composition without heating ([4]; room temperature 70° F. (21° C.)): does not dissolve to any significant extent; Solubility Limit ([4]; solvent d-limonene, results achieved by method 200): 16670 µg/mL (≈ 23100 µM); IgE reduction (IgE): reduce IgE significantly

From US12491209B2, “Dissolved C60 and method of producing dissolved C60” (Innovation for Success, LLC, priority 2019, dated 2025)
